Series [1] in a line: Selectivity index, ratio of IC50 for mice (Mus musculus) FM3A cells to IC50 for chloroquine-sensitive Plasmodium falciparum FCR3/Gambia. It is filed as toxicity, cell-based. To be noted: read-out: Ratio IC50.
For series [2], the system named is Plasmodium falciparum. The series can be described thus: Antimalarial activity against chloroquine-sensitive Plasmodium falciparum FCR3/Gambia. The class given is functional. The note with it: FCR-3/Gambia.
Another series relates to FM3A. The series can be described thus: Cytotoxicity in mouse FM3A cells. It is filed as cell-based.
Series [3] is described as follows: Inhibition of beta-hematin formation by BHIA assay. The class given is functional.
The next series relates to Nucleic Acid. As to the kind of experiment: Displacement of methyl green dye from DNA. The class given is nucleic-acid assay.
The test system of series [4] is Trypanosoma brucei rhodesiense. As to the kind of experiment: Antitrypanosomal activity against Trypanosoma brucei rhodesiense. It is filed as functional, organism-based.
Series [5] deals with Plasmodium falciparum. The series can be described thus: Antimalarial activity against chloroquine and pyrimethamine-resistant Plasmodium falciparum K1 by [3H]hypoxanthine incorporation assay. It is filed as functional, organism-based.
The subject of a further series is Leishmania donovani. The series can be described thus: Antileishmanial activity against Leishmania donovani axenic amastigotes. It is filed as functional, organism-based.
A further series deals with Trypanosoma cruzi. The series can be described thus: Antitrypanosomal activity against Trypanosoma cruzi. The class given is functional, organism-based.
For a further series, the system named is L6. As to the kind of experiment: (§1) Toxicity against rat L6 cells. It is filed as cell-based. The note with it: l6.
A short description of series [6]: as §1. The class given is cell-based. To be noted: rat, L6 cells.
Series [7] concerns Plasmodium falciparum. The series can be described thus: Antimalarial activity against Plasmodium falciparum isolates. It is filed as functional, organism-based.
The test system of series [8] is Plasmodium falciparum. The series can be described thus: Antimalarial activity against chloroquine and pyrimethamine-resistant Plasmodium falciparum K1. It is filed as functional, organism-based.
The test system of the next series is THP-1. As to the kind of experiment: Cytotoxicity in human THP1 cells. The class given is cell-based.
Series [9] relates to Plasmodium falciparum. As to the kind of experiment: Antimalarial activity against chloroquine-resistant Plasmodium falciparum W2. The class given is functional, organism-based.
Series [10] relates to Plasmodium falciparum. The series can be described thus: Antimalarial activity against chloroquine-sensitive Plasmodium falciparum D6. The class given is functional, organism-based.
Series [11] relates to Plasmodium berghei. As to the kind of experiment: Antimalarial activity against Plasmodium berghei ANKA infected in Swiss mice (Mus musculus) assessed as mice (Mus musculus) survival at 10 mg/kg, intraperitoneally dosed for 5 consecutive days measured 7 days post infection. The note with it: ip, 168 h.
The subject of series [12] is Plasmodium berghei. The series can be described thus: Antimalarial activity against Plasmodium berghei ANKA infected in Swiss mice (Mus musculus) assessed as suppression of parasitaemia at 10 mg/kg, intraperitoneally dosed for 5 consecutive days measured 4 days post infection relative to untreated control. To be noted: route intraperitoneal.
Series [13] has as its system Plasmodium berghei. As to the kind of experiment: Antimalarial activity against Plasmodium berghei ANKA infected in Swiss mice (Mus musculus) assessed as parasitaemia level at 10 mg/kg, intraperitoneally dosed for 5 consecutive days measured 4 days post infection. The note with it: route intraperitoneal.

Molecules are shown by their SMILES. pIC50: −log10 of the molar value. Where a name gives a salt, the structure may show the parent alone. Calls of active or inactive are those of the source. The calls are words filed in the database; no cut-off is given here. Bounds are passed on as bounds.

As to `C=Cc1c2[nH]c3ccccc3c2c(OC)c[n+]1CC`, the selectivity ratio in series [1] is more than 32. The pIC50 (commonly the IC50 on a negative log10 scale, so that one unit is a factor of ten) in the series with Plasmodium falciparum [2] was more than 6.00; in the series on FM3A, less than 5.00.

Regarding `Cn1cc2c3ccccc3nc-2c2ccccc21` [ISOCRYPTOLEPINE HYDROCHLORIDE], the inhibition result (in series [3]; with Nucleic Acid) was “Active” each time. The negative logarithm of the IC50 (pIC50) was 6.28 in series [4] (Trypanosoma brucei); 6.11 with Plasmodium falciparum [5] (Plasmodium falciparum, K1); 4.41 with Leishmania donovani (Leishmania donovani); 5.90 in the series with Trypanosoma cruzi (Trypanosoma cruzi).

Take `Cn1cccc2nc3ccccc3c1-2` [listing 1 of 2 here]: the pIC50 is 3.75 in the series with L6; 3.86 in [4]; 6.32 in the series on Plasmodium falciparum [5]; less than 3.80 in the series on Leishmania donovani (Leishmania donovani); less than 3.80 in the series on Trypanosoma cruzi (Trypanosoma cruzi).

In turn, `Nc1nc(N)nc(Nc2ccc([As]3SCC(CO)S3)cc2)n1` (stereo not drawn) [MELARSOPROL] had a pIC50 in [6] of 5.07.

With `Cn1c2nc3ccccc3c-2cc2ccccc21` [NEOCRYPTOLEPINE HYDROCHLORIDE], the inhibition result (in [3]; in the series with Nucleic Acid) was “Active” each time. Also, the pIC50 was 5.65 in [4] (Trypanosoma brucei); 5.58 in the series on Plasmodium falciparum [5] (Plasmodium falciparum, K1); 4.31 with Leishmania donovani (Leishmania donovani); 5.70 with Trypanosoma cruzi (Trypanosoma cruzi).

As for `Cn1cc2nccc-2c2ccccc21`, the pIC50 is 3.80 in series [6]; 4.50 in series [4] (Trypanosoma brucei); 5.49 in the series on Plasmodium falciparum [5] (Plasmodium falciparum, K1); 3.77 with Leishmania donovani (Leishmania donovani); 4.11 in the series with Trypanosoma cruzi (Trypanosoma cruzi).

As for `Cn1cc2ccccc2c2ccnc1-2`, the pIC50 is 3.82 in series [6]; 5.08 in [4] (Trypanosoma brucei); 5.11 with Plasmodium falciparum [5] (Plasmodium falciparum, K1); 4.01 in the series with Leishmania donovani (Leishmania donovani); 4.39 in the series on Trypanosoma cruzi (Trypanosoma cruzi).

For the molecule `CCc1c2[nH]c3ccccc3c2c(OC)c[n+]1C`, the selectivity ratio in series [1] was more than 32. In addition, the pIC50 is more than 6.00 with Plasmodium falciparum [2] and less than 5.00 with FM3A.

On to `CCCCCCCCCCCCCCCCOP(=O)([O-])OCC[N+](C)(C)C` [MILTEFOSINE], for which, in series [6], the pIC50 is 4.23.

As for `C=Cc1ncc(OC)c2c1[nH]c1ccc(O)cc12`, in the series on Plasmodium falciparum [7], the pIC50 is 4.86.

Regarding `Cn1cc2ccccc2c2c3ccccc3nc1-2`, the negative logarithm of the IC50 (pIC50) was 5.89 in the series with L6; 4.09 on Nucleic Acid; 5.48 in series [4]; 7.40 in the series with Plasmodium falciparum [5] (Plasmodium falciparum, K1); 5.32 in the series with Leishmania donovani (Leishmania donovani); 4.68 in the series with Trypanosoma cruzi. Also, the IC50 in series [3] is 2.76 molar equivalents.

Regarding `Cn1cc2ccccc2c2nc3ccccc3c1-2` [listing 1 of 2 here], the pIC50 in series [6] was 5.83; in series [4] it was 6.14; in the series with Plasmodium falciparum [5] (Plasmodium falciparum, K1), 6.19; with Leishmania donovani (Leishmania donovani), 4.81; in the series on Trypanosoma cruzi, 5.78.

Turning to `O=C(Cn1ccnc1[N+](=O)[O-])NCc1ccccc1` [BENZNIDAZOLE], the pIC50 in series [6] was less than 4.05; in the series with Trypanosoma cruzi (Trypanosoma cruzi), 5.90.

Consider `C[n+]1ccc2c(c1)[nH]c1ccccc12` [listing 1 of 2 here], for which the pIC50 in [6] was less than 3.54; at Nucleic Acid, less than 2.55; in series [4] (Trypanosoma brucei), 3.81; in the series with Plasmodium falciparum [5] (Plasmodium falciparum, K1), 6.47; in the series on Leishmania donovani (Leishmania donovani), 4.28; with Trypanosoma cruzi (Trypanosoma cruzi) it was less than 4.02.

As for `C[n+]1c2ccccc2cc2[n-]c3ccccc3c21` [CRYPTOLEPINE HYDROCHLORIDE], the inhibition entry (in [3]; in the series with Nucleic Acid) was “Active” each time. Further, the negative-log IC50 (pIC50) in series [4] (Trypanosoma brucei) was 6.22; with Plasmodium falciparum [5] (Plasmodium falciparum, K1), 6.92; in the series on Leishmania donovani (Leishmania donovani), 5.57; in the series with Trypanosoma cruzi (Trypanosoma cruzi), 6.66.

For `c1ccc2c(c1)cnc1[nH]ccc12`, the pIC50 in series [6] is 3.93; in series [4] (Trypanosoma brucei) it was 4.36; in the series with Plasmodium falciparum [5] (Plasmodium falciparum, K1), 4.63; with Leishmania donovani (Leishmania donovani), 4.52; in the series with Trypanosoma cruzi (Trypanosoma cruzi) it was 4.16.

With `Cn1cc2ccccc2c2c3ccccc3nc1-2.I`, the negative logarithm of the IC50 (pIC50) in [6] is 5.82; on Nucleic Acid, 4.06; in [4] (Trypanosoma brucei), 5.59; in the series with Plasmodium falciparum [5], 7.49; in the series with Leishmania donovani it was 5.18; with Trypanosoma cruzi (Trypanosoma cruzi) it was 4.92. In series [3], this molecule registered an IC50 of 3.32 molar equivalents.

With `Cn1cccc2c3ccccc3nc1-2` [listing 1 of 2 here], the pIC50 in series [6] was 3.63; in [4] it was 4.47; in the series on Plasmodium falciparum [5] (Plasmodium falciparum, K1), 4.89; in the series with Leishmania donovani, less than 4.02; in the series on Trypanosoma cruzi (Trypanosoma cruzi), 4.19.

Turning to `Cn1ccc2nc3ccccc3c-2c1` [listing 1 of 2 here], the pIC50 with L6 is less than 3.54; in series [4] (Trypanosoma brucei) it was 3.96; in the series on Plasmodium falciparum [5], 5.62; in the series with Leishmania donovani, less than 4.02; with Trypanosoma cruzi it was less than 4.02.

On to `COc1c[n+](C)c(C)c2[nH]c3ccccc3c12`, for which the selectivity ratio in series [1] is more than 32. The pIC50 in the series on Plasmodium falciparum [2] was more than 6.00; with FM3A it was less than 5.00.

Consider `COc1ccc2c3cc[n+](C)c(C)c3n(C)c2c1`, for which the selectivity ratio in [1] is more than 32. The results for the pIC50 in the series on Plasmodium falciparum [2] and with FM3A were more than 6.00 and less than 5.00, respectively.

As to `C[n+]1ccc2c(c1)[nH]c1ccccc12` [NORMELINONINE F HYDROCHLORIDE], the pIC50 in the series on Plasmodium falciparum [8] was 4.87.

For the molecule `Cn1cccc2c3ccccc3nc1-2` [listing 2 of 2 here], the pIC50 with L6 was 3.52; in series [4] (Trypanosoma brucei) it was 4.67; with Plasmodium falciparum [5] it was 4.83; in the series on Leishmania donovani (Leishmania donovani), less than 3.80; with Trypanosoma cruzi it was 4.05.

For `Cc1c2[nH]c3ccccc3c2cc[n+]1C`, the selectivity ratio in series [1] is 18. In addition, the pIC50 with Plasmodium falciparum [8] was 5.29.

Consider `Cc1nccc2c1[nH]c1ccccc12` [HARMAN], for which the pIC50 is 3.92 in the series with THP-1, 5.15 in the series on Plasmodium falciparum [9] and 4.92 with Plasmodium falciparum [10].

Turning to `Cn1ccc2c3ccccc3nc-2c1`, the pIC50 in [6] was less than 3.31; on Nucleic Acid, less than 2.42; in series [4] (Trypanosoma brucei), 4.03; with Plasmodium falciparum [5] (Plasmodium falciparum, K1), 6.35; in the series on Leishmania donovani (Leishmania donovani), 4.04; in the series on Trypanosoma cruzi (Trypanosoma cruzi) it was less than 3.80. For the same molecule, the inhibition entry in [3] is “inactive”.

On to `CC1NCCc2c1[nH]c1ccccc21` (stereo not drawn) [TETRAHYDROHARMAN], for which the pIC50 with THP-1 was 3.39; in the series with Plasmodium falciparum [9], 5.12; in the series with Plasmodium falciparum [10], 4.70.

As for `C=Cc1ncc(OC)c2c1[nH]c1ccccc12`, in the series on Plasmodium falciparum [7], the negative logarithm of the IC50 (pIC50) was 4.97.

`Cn1cccc2nc3ccccc3c1-2` [listing 2 of 2 here]: the pIC50 was 3.88 in series [6]; 4.06 in series [4] (Trypanosoma brucei); 6.42 with Plasmodium falciparum [5] (Plasmodium falciparum, K1); less than 4.02 with Leishmania donovani; less than 4.02 in the series on Trypanosoma cruzi.

For the molecule `C[n+]1cc2[nH]c3ccccc3c2c2ccccc21` [ISONEOCRYPTOLEPINE HYDROCHLORIDE], the inhibition result (in series [3]; in the series on Nucleic Acid) was “Active” in each case. The pIC50 in [4] (Trypanosoma brucei) was 5.19; in the series on Plasmodium falciparum [5] (Plasmodium falciparum, K1) it was 6.64; with Leishmania donovani (Leishmania donovani), 4.12; with Trypanosoma cruzi (Trypanosoma cruzi), 4.68.

Regarding `c1ccc2c(c1)ncc1[nH]ccc12`, the pIC50 was 3.76 in series [6]; 4.59 in [4] (Trypanosoma brucei); 5.19 in the series with Plasmodium falciparum [5] (Plasmodium falciparum, K1); 3.74 with Leishmania donovani (Leishmania donovani); 4.09 in the series on Trypanosoma cruzi (Trypanosoma cruzi).

In the case of `Cn1ccc2nc3ccccc3c-2c1` [listing 2 of 2 here], the pIC50 in series [6] was 3.41; in series [4], 3.86; in the series on Plasmodium falciparum [5] (Plasmodium falciparum, K1), 5.68; in the series on Leishmania donovani (Leishmania donovani) it was less than 3.80; in the series with Trypanosoma cruzi (Trypanosoma cruzi), less than 3.80.

Turning to `C[n+]1ccc2c(c1)[nH]c1ccccc12` [listing 2 of 2 here], the inhibition result in [3] is “inactive”.

With `Cn1cc2ccccc2c2nc3ccccc3c1-2` [listing 2 of 2 here], the pIC50 with L6 was 5.66; in series [4] (Trypanosoma brucei) it was 6.26; in the series with Plasmodium falciparum [5], 6.24; in the series with Leishmania donovani, 4.77; with Trypanosoma cruzi (Trypanosoma cruzi), 5.82.

In series [6], `CCN(CC)CCCC(C)Nc1ccnc2cc(Cl)ccc12` (stereo not drawn) [CHLOROQUINE] had a pIC50 of 4.37. The survival at 10 mg/kg in the series on Plasmodium berghei [11] came out at 100%. For the same molecule, the values for the Activity in the series with Plasmodium berghei [12] and in the series with Plasmodium berghei [13] were 86.3% and 5.24%, respectively.

For the origin of these results see ChEMBL document CHEMBL1152627, “Structure-activity relationship of antiparasitic and cytotoxic indoloquinoline alkaloids, and their tricyclic and bicyclic analogues” (Bioorg Med Chem, 2009).
